Non-standard residues stand in square brackets, D forms with d. Residues, ends and D or L forms follow the SMILES beside them. *: point of attachment. Phenylacetyl(2,3,4,5,6-F5) = O=C(Cc1c(F)c(F)c(F)c(F)c1F)*; Phe(F5) = N[C@@H](Cc1c(F)c(F)c(F)c(F)c1F)C(=O)O; hArg = N=C(N)NCCCC[C@H](N)C(=O)O; 12Ado = NCCCCCCCCCCCC(=O)O; Nle = CCCC[C@H](N)C(=O)O; Orn = NCCC[C@H](N)C(=O)O; Abu = CC[C@H](N)C(=O)O; PhAc = O=C(Cc1ccccc1)*
Key:
[1] = test system: SK-OV-3 ovarian cancer cells; assay: In vitro cell viability, SK-OV-3; format: cell-based, human; settings: Table 3B; * at 2 μM for 72 H; MIA-602 = 1
Protocol: (§1) The inhibitory effects of the various synthesized GHRH antagonists were tested in cell proliferation assays in various human cancer cell lines including stomach cancer (KATOIII, N87), colon cancer (HT-29), urothelial cancer (J82, RT4), pancreatic cancer (PANC-1, CFPAC-1), prostatic cancer (PC3), breast cancer (MX-1, HCC1806), ovarian cancer (SK-OV-3, OVCAR-3) and lung cancer (HCC827, H460).
(§2) Cell culture. Human cancer cell lines including pancreatic (PANC-1 and CFPAC-1), lung (HCC827 and H460), stomach (NCI-N87 and KATOIII), urothelial (J82, RT4), prostatic (PC3), breast (MX-1 and HCC 1806), colorectal (HT-29), and ovarian (SK-OV-3 and OVCAR-3) were obtained from the American Type Culture Collection (ATCC) and cultured at 37° C. in a humidified 95% air/5% CO2 atmosphere in the medium recommended by ATCC.
(§3) In vitro cell viability. Cell viability was analyzed as follows: cancer cells including pancreatic (PANC-1 and CFPAC-1), lung (HCC827 and H460), stomach (NCI-N87 and KATOIII), urothelial (J82, RT4), prostatic (PC3) and breast (MX-1 and HCC 1806), colorectal (HT-29) and ovarian (SK-OV-3 and OVCAR-3) were grown on 96 well plates to ˜60% confluence, the cells were starved for 24 h in culture medium containing 0.5% FBS. Cells were then treated with GHRH antagonists MIA602 AVR compounds at concentrations of 1, 2.5 or 5 μM, or vehicle (0.1% DMSO) in quintuplicates for 72 hours. The medium was replaced every 48 hours. Cell viability was measured using CellTiter 96 aqueous one solution kit (Promega). Inhibitory effects of tested AVR compounds in comparison to that of MIA602 are presented as inhibitory potency.
(§4) Inhibitory effects of selected AVR compounds in comparison to that of MIA602 are presented as inhibitory potency (e.g., percentage of inhibition). […] The cell lines tested including lung cancer HCC827 (FIG. 2A), pancreatic cancer CFPAC-1 (FIG. 2B), stomach cancer N87 (FIG. 2C), colon cancer HT-29 (FIG. 2D), breast cancers MX-1 and HCC1806 (FIGS. 2 E, F). […]

[2] = test system: MX-1 breast cancer cells; assay: In vitro cell viability, MX-1; format: cell-based, human; settings: for In vitro relative inhibitory potency in comparison to MIA-602, MX-1: Table 3B, 5 μM for 72 H, MIA-602 = 1
Protocol: as §1, §2, §3
(§5) Inhibitory effects of selected AVR compounds in comparison to that of MIA602 are presented as inhibitory potency (e.g., percentage of inhibition). […] The cell lines tested including lung cancer HCC827 (FIG. 2A), pancreatic cancer CFPAC-1 (FIG. 2B), stomach cancer N87 (FIG. 2C), colon cancer HT-29 (FIG. 2D), breast cancers MX-1 and HCC1806 (FIGS. 2 E, F). Based on the results of cell proliferation assay after cancer cells were treated with antagonist at concentration of 5 μM for 72H, the relative inhibitory potency of AVR antagonists in comparison to MIA-602 is summarized in Table 3 A and B. Over 60 AVR compounds were tested in 12 cancer cell lines.
(§6) Based on the results of cell proliferation assay after cancer cells were treated with antagonist at concentration of 5 µM for 72H, * at concentration of 2 µM for 72 H.

[3] = test system: lung cancer H460 xenograft; assay: Xenograft tumor growth in nude mice, H460; format: in vivo; settings: Table 4H, Lung Ca H460, 4 weeks, 5 μg/day s.c.; for % Inhibition: vs control
Protocol: (§7) The peptides' activity was compared with GHRH antagonist MIA-602. All statistical analyzses were performed from comparing GHRA antagonists to non-treated tumor (control).
(§8) Peptides and chemicals. GHRH antagonists MIA-602 and AVR-GHRH antagonists (see Table 2 above) were synthesized by solid phase methods and purified by HPLC. The peptides were dissolved in DMSO and further diluted in 10% 1,2-propanediol. The final concentration of peptides was 50 µg/ml in 10% 1,2-propanediol containing 0.1% of DMSO.
(§9) Cell culture. Human cancer cell lines including pancreatic (PANC-1 and CFPAC-1), lung (HCC827 and H460), stomach (NCI-N87), prostate (PC3), brest (MX-1 and HCC-1806), colorectal (HT-29), and ovarian (SK-OV-3 and OVCAR-3) were obtained from the American Type Culture Collection (ATCC) and cultured at 37° C. in a humidified 95% air/5% CO2 atmosphere in the medium recommended by ATCC.
(§10) Xenograft models of human cancers in nude mice. Female athymic (NCr nu/nu) nude mice, 5- to 6-weeks-old, obtained from the Envigo labs (Tampa, Fla.), were housed in laminar airflow cabinets under pathogen-free conditions with a 12-h light/12-h dark schedule, and were fed autoclaved standard chow and water. To generate mice with xenografted tumors, tumor xenografts were initiated by subcutaneous (s.c.) injection of 107 human cancer cells into female nude mice. After about 4 weeks the resulting tumors were dissected and collected after removing necrosis tissues. The tumors were then cut into particles with size of 3 mm3 and transplanted s.c. by trocar needle into experimental animals. When tumors grew to the size of 50-60 mm3 (by volume), mice were randomized into groups and treated daily for 4-8 weeks by subcutaneous administration of 5 μg of GHRH antagonists MIA-602 or AVR-compounds (2-10 μg as indicated), or vehicle solutions (0.1% DMSO in 10% 1,2-propanediol) respectively. Tumor sizes were measured weekly.
(§11) Statistical analysis. One-way ANOVA followed by Bonferroni comparison were performed. Data are expressed as Mean±SEM. To determine statistical significance between animal groups, two-tailed Student's t-test was conducted. Differences were considered significant when p<0.05.
(§12) Results. […] FIG. 1A-N represents in vivo inhibition of tumor growth during the treatment with GHRH antagonist MIA-602 and selected AVR antagonists in nude mice xenografted with various human tumors including pancreatic cancer PANC-1 (FIG. 1A) and CFPAC-1 (FIG. 1I); lung cancer HCC827 (FIGS. 1B, C) and H460 (FIG. 1H); stomach cancer N87 (FIGS. 1D-F); colon cancer HT-29 (FIG. 1G); breast cancer MX-1 and HCC-1806 (FIGS. 1J, K); ovarian cancer SK-OV-3 and OVACAR-3 (FIGS. 1 L, M) and prostate cancer PC3 (FIG. 1N). See also Table 5.

[4] = test system: ovarian cancer OVCAR-3 xenograft; assay: Xenograft tumor growth in nude mice, OVCAR-3; format: in vivo; settings: Table 4M, Ovarian Ca OVCAR-3, 9 weeks; for % Inhibition: vs control
Protocol: as §7, §8, §9, §10, §11, §12

[5] = test system: breast cancer HCC-1806 xenograft; assay: Xenograft tumor growth in nude mice, HCC-1806; format: in vivo; settings: Table 4K, Breast Ca HCC-1806, 5 weeks, 5 μg/day s.c.; for % Inhibition: vs control
Protocol: as §7, §8, §9, §10, §11, §12

[6] = test system: OVCAR-3 ovarian cancer cells; assay: In vitro cell viability, OVCAR-3; format: cell-based, human; settings: Table 3B; * at 2 μM for 72 H; MIA-602 = 1
Protocol: as §1, §2, §3, §4

[7] = test system: HCC1806 breast cancer cells; assay: In vitro cell viability, HCC1806; format: cell-based, human; settings: for In vitro relative inhibitory potency in comparison to MIA-602, HCC-1806: Table 3B, 5 μM for 72 H, MIA-602 = 1
Protocol: as §1, §2, §3, §5, §6

[8] = test system: pancreatic cancer CFPAC-1 xenograft; assay: Xenograft tumor growth in nude mice, CFPAC-1; format: in vivo; settings: Table 4I, Pancreatic Ca CFPAC-1, 7 weeks; for % Inhibition: vs control
Protocol: as §7, §8, §9, §10, §11, §12

[9] = antagonist 5 μM for 72 h, cell proliferation assay, MIA602 = 1

SMILES | In vitro relative inhibitory potency in comparison to MIA-602, SKOV-3 [1] | In vitro relative inhibitory potency in comparison to MIA-602, MX-1 [2] | relative inhibitory potency in comparison to MIA-602, Breast MX-1 [2, 9] | Tumor Growth % [3] [%] | % Inhibition [3] [%] | Tumor Size (mm3) ([4]; 5 μg/day s.c.) | % Inhibition ([4]; 5 μg/day s.c.) [%] | Tumor Growth % [5] [%] | % Inhibition [5] [%] | In vitro relative inhibitory potency in comparison to MIA-602, OVCAR-3 [6] | In vitro relative inhibitory potency in comparison to MIA-602, HCC-1806 [7] | relative inhibitory potency in comparison to MIA-602, Breast IICC1806 [7, 9] | Tumor Growth % ([8]; 5 μg/day s.c.) [%] | % Inhibition ([8]; 5 μg/day s.c.) [%] | Tumor Size (mm3) ([4]; 2.5 μg/day s.c.) | % Inhibition ([4]; 2.5 μg/day s.c.) [%] | Tumor Growth % ([8]; 2.5 μg/day s.c.) [%] | % Inhibition ([8]; 2.5 μg/day s.c.) [%]
CCCC[C@H](NC(=O)[C@@H](NC(=O)[C@H](CC(=O)O)NC(=O)[C@H](CCC(N)=O)NC(=O)[C@H](CC(C)C)NC(=O)[C@H](CC(C)C)NC(=O)[C@H](CCCN)NC(=O)[C@H](Cc1c[nH]cn1)NC(=O)[C@H](C)NC(=O)[C@H](CO)NC(=O)[C@H](CC(C)C)NC(=O)[C@H](CCC(N)=O)NC(=O)[C@H](CC)NC(=O)[C@H](CC(C)C)NC(=O)[C@@H](NC(=O)[C@H](CCCN)NC(=O)[C@H](Cc1c[nH]cn1)NC(=O)[C@H](Cc1ccc(OC)cc1)NC(=O)[C@H](CCCCNC(=N)N)NC(=O)[C@H](C)NC(=O)[C@@H](NC(=O)[C@H](Cc1c(F)c(F)c(F)c(F)c1F)NC(=O)[C@@H](NC(=O)[C@H](C)NC(=O)[C@H](CC(=O)O)NC(=O)[C@@H](CCCNC(=N)N)NC(=O)[C@H](Cc1ccc(O)cc1)NC(=O)CCCCCCCCCCCNC(=O)Cc1ccccc1)[C@@H](C)CC)[C@@H](C)O)C(C)C)[C@@H](C)CC)C(=O)N[C@H](CCCNC(=N)N)C(=O)N[C@@H](CCCCNC(=N)N)C(N)=O [MIA-602, PhAC-Ada, Tyr D-Arg, Asp, Ala, Ile, 5FPhe, Thr, Ala, Har, Tyr(Me), His, Orn, Val, Leu, Abu, Gin, Leu, Ser, Ala, His, Om, Leu, Leu, Gin, Asp, Ile; Nle, D-Arg, Har NH2, reference compound] ({PhAc-12Ado}-Y[dR]DAI[Phe(F5)]TA[hArg]Y(Me)H[Orn]VL[Abu]QLSAH[Orn]LLQDI[Nle][dR][hArg]-NH2) | 1 | 1 | 1 | 1602.7 | 52.6 | 267.2 | 44.4 | 529.4 | 55.7 | 1 | 1 | 1 | 1587.5 | 19.5 | – | – | – | –
CCCC[C@H](NC(=O)[C@@H](NC(=O)[C@H](CC(=O)O)NC(=O)[C@H](CCC(N)=O)NC(=O)[C@H](CC(C)C)NC(=O)[C@H](CC(C)C)NC(=O)[C@H](CCCCN)NC(=O)[C@H](CCCNC(=N)N)NC(=O)[C@H](C)NC(=O)[C@H](CO)NC(=O)[C@H](CC(C)C)NC(=O)[C@H](CCC(N)=O)NC(=O)[C@H](CC)NC(=O)[C@H](CC(C)C)NC(=O)[C@@H](NC(=O)[C@H](CCCCN)NC(=O)[C@H](CCCNC(=N)N)NC(=O)[C@H](Cc1ccc(OC)cc1)NC(=O)[C@H](CCCCNC(=N)N)NC(=O)[C@H](C)NC(=O)[C@@H](NC(=O)[C@H](Cc1c(F)c(F)c(F)c(F)c1F)NC(=O)[C@@H](NC(=O)[C@H](C)NC(=O)[C@H](CC(=O)O)NC(=O)[C@@H](CCCNC(=N)N)NC(=O)[C@H](Cc1ccc(O)cc1)NC(=O)CCCCCCCCCCCNC(=O)Cc1c(F)c(F)c(F)c(F)c1F)[C@@H](C)CC)[C@@H](C)O)C(C)C)[C@@H](C)CC)C(=O)N[C@H](CCCNC(=N)N)C(=O)N[C@@H](CCCCNC(=N)N)C(=O)NCCCCCCCCCCCC(N)=O [AVR-352, 5FPhAC-Ada-Tyr-DArg-Asp-Ala-Ile-5FPhe-Thr-Ala-Har-Tyr(Me)-Arg-Lys-Val-Leu-Abu-Gln-Leu-Ser-Ala-Arg-Lys-Leu-Leu-Gln-Asp-Ile-Nle-DArg-Har-Ada-NH2] ({Phenylacetyl(2,3,4,5,6-F5)-12Ado}-Y[dR]DAI[Phe(F5)]TA[hArg]Y(Me)RKVL[Abu]QLSARKLLQDI[Nle][dR][hArg][12Ado]-NH2) | 1.15* | 2.793 | – | 1738.3 | 48.6 | 199.9 | 58.4 | 522.7 | 56.2 | 1.68* | 4.85 | – | 1448.4 | 26.5 | 307.7 | 35.9 | 1616.9 | 18.0

Reference: US20210395327A1, “Growth Hormone-Releasing Hormone Antagonists and Uses Thereof” (United States Government As Represented By The Department …, priority 2019, published 2021)
